Experimental findings from PubChem BioAssay (NCI) are described below.

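Compound exposure: 48 hours, 5 concentrations, 96-well plates. TGI is the concentration that stops growth completely.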 Bounds are passed on as bounds.

Holding throughout (test): NCI anticancer screen, dose series, 48 h
Assay [1] has as its system MDA-MB-435.
Assay [2] concerns HOP-62 NSCLC.
Assay [3] concerns IGROV1 ovarian.
Assay [4] concerns SW-620 colon.
In assay [5] the test system is TK-10 renal.
Assay [6] relates to UACC-257 melanoma.
The test system of assay [7] is ACHN renal.
Assay [8] has as its system SF-539 CNS.
Assay [9] concerns T-47D breast.
For assay [10], the system named is SK-MEL-28 melanoma.
For assay [11], the system named is MDA-MB-231 breast.
Assay [12] concerns CCRF-CEM leukemia.
Assay [13] concerns HOP-92 NSCLC.
For assay [14], the system named is A549 NSCLC.
Assay [15] deals with KM12 colon.
Assay [16] relates to OVCAR-4 ovarian.
The subject of assay [17] is SNB-19 CNS.
The test system of assay [18] is HL-60(TB) leukemia.
The subject of assay [19] is OVCAR-3 ovarian.
Assay [20] has as its system MALME-3M melanoma.

Consider `CC(C)Oc1c(C2(c3ccccc3O)SCCCS2)c(=O)c1=O`, for which the TGI in assay [1], in [2], in [3], in assay [4], in assay [5] and in [6] was > 100 µM in each case. Moreover, the TGI in [7] is > 100 µM; in assay [8], > 100 µM; in [9], > 100 µM; in [10], > 100 µM; in assay [11], > 100 µM; in assay [12], 61.6 µM. The TGI in [13], in [14], in assay [15], in assay [16], in assay [17] and in assay [18] was > 100 µM each time. For the same compound, the TGI in assay [19] is > 100 µM.

For the compound `CCN(CC)CCOc1ccc(N2Cc3ccccc3C2=O)cc1`, the TGI in assay [1], in [2], in assay [3], in assay [4], in [5] and in assay [6] was > 10 µM each time. The TGI in assay [7], in [8], in assay [9], in assay [10], in assay [11] and in assay [12] was > 10 µM in each case. Moreover, the TGI in [20], in [13], in assay [14], in assay [16], in assay [17] and in assay [18] was > 10 µM each time. For the same compound, the TGI in assay [19] was > 10 µM.

Regarding `N#C/C(=C\c1ccc(F)cc1)c1nc2ccccc2c(=O)[nH]1`, the TGI in [1], in assay [2], in assay [3], in [4], in assay [5] and in assay [6] was > 100 µM in each case. For the same compound, the TGI in assay [7], in assay [8], in assay [9], in assay [10], in [11] and in [12] was > 100 µM each time. The TGI in assay [20], in assay [13], in assay [14], in [15], in [16] and in [17] was > 100 µM each time. In addition, the TGI in assay [18] was > 100 µM.

For the compound `O=c1oc2ccccc2cc1-c1csc(Nc2cc(Cl)cc(Cl)c2)n1`, the TGI is > 53.1 µM in [1]; 17.9 µM in [2]; 36 µM in assay [3]; 50.9 µM in assay [4]; 85.2 µM in assay [5]; > 100 µM in assay [6]. In addition, the TGI is 4.38 µM in assay [7]; 5.16 µM in assay [8]; > 100 µM in [9]; 59 µM in assay [10]; 63.8 µM in [11]; > 100 µM in assay [12]. The TGI in assay [20] is 64.8 µM; in [13], > 58.3 µM; in assay [14], 16.9 µM; in assay [15] it was > 58.6 µM; in [17] it was > 52.8 µM; in assay [18], > 100 µM. In assay [19], this compound displayed a TGI of 35.2 µM.

With `N#Cc1c(N)c2c(c(-c3ccccc3)c1-c1ccccc1)C(=O)N(Nc1ccccc1)C2=O`, the TGI in assay [1], in [3], in assay [4], in assay [5], in assay [6] and in [7] was > 100 µM throughout. The TGI is > 100 µM in [8]; 71 µM in assay [9]; > 100 µM in [10]; > 100 µM in assay [11]; > 100 µM in assay [12]; > 100 µM in assay [20]. The TGI in [13] is > 100 µM; in assay [14] it was > 100 µM; in assay [15] it was 56.4 µM; in [16], > 100 µM; in assay [17] it was > 100 µM; in assay [18] it was > 100 µM. Also, in assay [19], the TGI worked out at 78.1 µM.

Take `COC(=O)CCCC(=O)NC1=C(Nc2ccccc2)C(=O)c2ccccc2C1=O`: the TGI in [1] was found to be 17.4 µM; in assay [3] it was 30.2 µM; in assay [4] it was 52.4 µM; in assay [5], 49.7 µM; in [6] it was 26.4 µM; in assay [7] it was 62.2 µM. Further, the TGI was 35 µM in assay [8]; 64.8 µM in assay [9]; 30.3 µM in assay [10]; 43.8 µM in [11]; 76.2 µM in [12]; 12.9 µM in [20]. Besides, the TGI in assay [13] amounted to 73.6 µM; in assay [14] it was 36.8 µM; in assay [15], 20.2 µM; in assay [16] it was 37.1 µM; in [17], 34.6 µM; in assay [18] it was 49.7 µM. Besides, the TGI in assay [19] is 38 µM.

With `CC(O)CCNC(=O)Nc1c(C(F)(F)F)cc(-c2ccccc2)[nH]c1=O` (stereo not drawn), the TGI in assay [1], in [2], in assay [3], in assay [4], in assay [5] and in assay [6] was > 100 µM each time. Moreover, the TGI in assay [7], in assay [9], in assay [10], in assay [11], in assay [12] and in [20] was > 100 µM in each case. In addition, the TGI in assay [13], in assay [14], in assay [15], in [16], in [17] and in [18] was > 100 µM each time. Also, the TGI in assay [19] was > 100 µM.

For `CC(NC1=NCCO1)c1cccs1` (stereo not drawn), the TGI is 44.4 µM in assay [1]; 66.5 µM in assay [2]; 61.6 µM in assay [3]; > 100 µM in [4]; > 100 µM in assay [5]; 37.9 µM in [6]. Besides, the TGI was > 100 µM in [7]; > 100 µM in assay [9]; 53.9 µM in assay [10]; > 100 µM in [11]; 78.5 µM in assay [12]; 76.8 µM in assay [20]. Further, the TGI in assay [13] is 47 µM; in assay [14], > 100 µM; in assay [15] it was 31.7 µM; in assay [16] it was > 100 µM; in assay [17], 55.9 µM; in assay [18] it was 45.4 µM.

For `CSC1=C(C#N)C(=O)N(c2ccc(Cl)cc2)C(=O)C1C#N` (stereo not drawn), the TGI in assay [1], in assay [2], in [3], in [4], in assay [5] and in [6] was > 100 µM in each case. Besides, the TGI in [7], in assay [8], in [9], in assay [10], in assay [11] and in assay [12] was > 100 µM throughout. For the same compound, the TGI was > 100 µM in assay [20]; 76.9 µM in assay [13]; > 100 µM in [14]; > 100 µM in [16]; > 100 µM in assay [17]; > 100 µM in assay [18]. In addition, the TGI in assay [19] is > 100 µM.

As to `CCc1cccc(CC)c1Nc1nc2c(s1)C(=O)c1ccccc1C2=O`, the TGI in assay [1] is 31.9 µM; in assay [2] it was 30.2 µM; in assay [3], 25.7 µM; in assay [4], 74.6 µM; in assay [5] it was 36.6 µM; in assay [6], 37.8 µM. In addition, the TGI in assay [7] was 32 µM; in assay [8], 49.1 µM; in [9] it was > 100 µM; in assay [10] it was 35.9 µM; in assay [11] it was 41.4 µM; in assay [12], > 100 µM. In addition, the TGI in [20] is 31.5 µM; in assay [13], 44.7 µM; in [14] it was > 100 µM; in [15], 41 µM; in assay [17], 31.9 µM; in [18] it was > 100 µM. This compound also returned a TGI in [19] of 34 µM.

Take `COc1cc(/C=C2\N=C(c3ccccc3)N(c3nc4cc(C)c(C)cc4s3)C2=O)cc(OC)c1OC`: the TGI in assay [1] is 54.9 µM; in [2], 66.6 µM; in [3], > 100 µM; in assay [4], > 100 µM; in assay [5], > 100 µM; in assay [6], > 100 µM. Moreover, the TGI in assay [7] is 83.9 µM; in [8] it was 51.4 µM; in [9], > 100 µM; in assay [10] it was > 100 µM; in assay [11] it was > 100 µM; in [12] it was 21.8 µM. For the same compound, the TGI in assay [13] was 64.8 µM; in [14], > 100 µM; in assay [15] it was 71.2 µM; in [16] it was > 100 µM; in [17], > 100 µM; in [18], 39.7 µM. This compound also showed a TGI in [19] of 49.1 µM.

Regarding `CCOC(=O)c1c(C)noc1/N=N/N(CCO)CCO`, the TGI in assay [1] was > 100 µM; in assay [2], > 100 µM; in assay [3], > 100 µM; in [4], > 100 µM; in assay [5], > 100 µM; in assay [6], 86.5 µM. Also, the TGI is > 100 µM in assay [7]; 39.7 µM in assay [9]; > 100 µM in assay [10]; > 100 µM in assay [11]; 59.3 µM in assay [12]; > 100 µM in [20]. The TGI is 88.5 µM in assay [13]; > 100 µM in [14]; > 100 µM in [15]; > 100 µM in [16]; > 100 µM in assay [17]; > 100 µM in assay [18]. Further, the TGI in assay [19] worked out at 59.4 µM.

As for `NC(N)=NCc1ccc2c(c1)OCO2`, the TGI in [1], in [2], in assay [3], in assay [4], in assay [5] and in [7] was > 100 µM in each case. Besides, the TGI in assay [8], in assay [9], in assay [10], in assay [11], in [12] and in assay [20] was > 100 µM throughout. The TGI in [13], in [14], in assay [15], in [16], in assay [17] and in assay [18] was > 100 µM throughout. For the same compound, the TGI in [19] is > 100 µM.

For `CCCCC1C(=O)N(c2ccc(S(=O)(=O)Nc3ccccn3)cc2)N(c2ccc(O)c(C(=O)O)c2)C1=O` (stereo not drawn), the TGI in [1], in [3], in [4], in [6], in assay [7] and in [8] was > 100 µM throughout. Further, the TGI in assay [9], in [10], in assay [11], in assay [12], in assay [20] and in assay [13] was > 100 µM each time. For the same compound, the TGI in [14], in assay [15], in assay [16], in [17], in [18] and in [19] was > 100 µM each time.

As for `c1ccc(CN2CCCN3CCN(CCCN(Cc4ccccc4)CC3)CC2)cc1`, the TGI in assay [1] was > 100 µM; in assay [2], > 100 µM; in [3], > 100 µM; in assay [4], > 100 µM; in [5], > 100 µM; in assay [6], 68.5 µM. Moreover, the TGI in [7], in assay [8], in assay [9], in assay [10], in assay [11] and in [12] was > 100 µM each time. Moreover, the TGI in [13] was > 100 µM; in [14] it was > 100 µM; in [15], > 100 µM; in [16], > 100 µM; in assay [17] it was > 100 µM; in [18] it was 82.3 µM. Moreover, in [19], the TGI is > 100 µM.
